Laboratory results from US5840929A, “C4 methoxy ether derivatives of paclitaxel” (Bristol-Myers Squibb Company, priority 1996, dated 1998).

Tested on: HCT-116 human colon carcinoma cells
Assay: In vitro cytotoxicity, XTT assay in HCT-116 human colon carcinoma cells (72 h)
Assay type: cell-based
Settings: for Ratio of IC50 of Compound I over Paclitaxel: HCT-116, ratio to paclitaxel IC50; for IC50: Homo sapiens, HCT-116, XTT, 72 hours, 4000 cells/well, read-out: IC50 HCT-116 (drug concentration required to inhibit cell proliferation to 50% of untreated control cells)
Procedure: Cytotoxicity was assessed in HCT-116 human colon carcinoma cells by XTT (2,3-bis(2-methoxy-4-nitro-5-sulfphenyl)-5-[(phenylamino)carbonyl]2H-tetrazolium hydroxide) assay as reported in D. A. Scudiero, et al., "Evaluation of soluble tetrazolium/formazan assay for cell growth and drug sensitivity in culture using human and other tumor cell lines," Cancer Res. 48:4827-4833, 1988. Cells were plated at 4000 cells/well in 96 well microtiter plates and 24 hours later drugs were added and serial diluted. The cells were incubated at 37° C. for 72 hours at which time the tetrazolium dye, XTT, was added. A dehydrogenase enzyme in live cells reduces the XTT to a form that absorbs light at 450 nm which can be quantitated spectrophotometrically. The greater the absorbance, the greater the number of live cells. The results are expressed in Table I as an IC50, which is the drug concentration required to inhibit cell proliferation (i.e., absorbance at 450 nm) to 50% of that of untreated control cells.

Compound: CO[C@@]12CO[C@@H]1C[C@H](O)[C@@]1(C)C(=O)[C@H](OC(C)=O)C3=C(C)[C@@H](OC(=O)[C@H](O)[C@@H](NC(=O)c4ccccc4)c4ccccc4)C[C@@](O)([C@@H](OC(=O)c4ccccc4)[C@H]21)C3(C)C [Compound Ia, 4-deacetyloxy-4-methoxypaclitaxel]
- Ratio of IC50 of Compound I over Paclitaxel: 21.7
- IC50: 34.7 nM

Compound: CO[C@@]12CO[C@@H]1C[C@H](O)[C@@]1(C)C(=O)[C@H](OC(C)=O)C3=C(C)[C@@H](OC(=O)[C@H](O)[C@@H](NC(=O)OC(C)(C)C)c4ccco4)C[C@@](O)([C@@H](OC(=O)c4ccccc4)[C@H]21)C3(C)C [Compound Ib, 4-deacetyloxy-4-methoxy-3'-desphenyl-3'-(2-furyl)-3'-N-debenzoyl-3'-N-butoxycarbonyl(paclitaxel)]
- Ratio of IC50 of Compound I over Paclitaxel: 1.61
- IC50: 3.7 nM

Compound: CO[C@@]12CO[C@@H]1C[C@H](O)[C@@]1(C)C(=O)[C@H](OC(C)=O)C3=C(C)[C@@H](OC(=O)[C@H](O)[C@@H](NC(=O)OC(C)(C)C)c4ccccc4)C[C@@](O)([C@@H](OC(=O)c4ccccc4)[C@H]21)C3(C)C [Compound Ic, 4-deacetyloxy-4-methoxy-3'-N-debenzoyl-3'-N-butoxycarbonyl(paclitaxel)]
- Ratio of IC50 of Compound I over Paclitaxel: 1.69
- IC50: 2.2 nM

Compound: CC(=O)O[C@H]1C(=O)[C@@]2(C)[C@H]([C@H](OC(=O)c3ccccc3)[C@]3(O)C[C@H](OC(=O)[C@H](O)[C@@H](NC(=O)c4ccccc4)c4ccccc4)C(C)=C1C3(C)C)[C@]1(OC(C)=O)CO[C@@H]1C[C@@H]2O [Paclitaxel, paclitaxel]
- IC50: 1.3 to 2.3 nM
